Results taken from patent publication US8338403B2, “Drug for improving hyperglycemia” (Morinaga Milk Industry Co., Ltd., priority 2004, dated 2012).

Experiments:
[1] = test system: db/db mice (type-II diabetes model mice); assay: Test Example 1: hemoglobin A1c lowering action and hyperglycemic condition improving effect, 40-day oral administration; assay type: in vivo; conditions: male db/db mice; for changes over time in random blood glucose levels / changes over time in fasting blood glucose levels / Hemoglobin A1c relative levels (%) 35th day from the administration: oral 1 mL of 1 μg/mL once a day; for changes over time in random blood glucose levels / changes over time in fasting blood glucose levels: 40 consecutive days; for changes over time in random blood glucose levels: FIG. 1; for changes over time in fasting blood glucose levels: after 15 hours of fasting, FIG. 2; for Hemoglobin A1c relative levels (%) 35th day from the administration: negative sample = 100
Experimental: This test was performed in order to evaluate the hemoglobin A1c lowering action and the hyperglycemic condition improving effect of the compounds of the present invention.
The compound 2 (4-methylcholest-7-en-3-ol), compound 3 (4-methylergost-7-en-3-ol) and compound 4 (4-methylstigmast-7-en-3-ol) produced in Preparation Example 1 mentioned above were used as test samples 1, 2 and 3, respectively.
Six-week old male db/db mice (purchased from Clea Japan, Inc.) were used as type-II diabetes model mice. These mice were divided into groups, each consisting of 7 animals. Each test sample was dissolved in DMSO, and the concentration was adjusted to 1 μg/mL with physiological saline. The final DMSO concentration was adjusted to 0.2%. […] The type-II diabetes model mice were orally administered with 1 mL of any of the test sample solutions once a day everyday with a sonde for 40 consecutive days. Further, β-sitosterol (Tama Biochemical Co., Ltd.) was administered to the model mice as a control sample 1. Fasting blood glucose levels and random blood glucose levels were measured over time by using Antisense II (Bayer-Sankyo Co., Ltd.). The fasting blood glucose levels were measured after 15 hours of fasting. Further, on the 35th day from the start of the administration, hemoglobin A1c levels were measured by using DCA 2000 (Bayer-Sankyo Co., Ltd.).

[2] = test system: db/db mice (type-II diabetes model mice); assay: Test Example 2: hemoglobin A1c lowering action compared with a clinical antidiabetic drug, 22-day oral administration; assay type: in vivo; conditions: male db/db mice; for Hemoglobin A1c relative levels (%) 23th day from the administration: oral 1 mL once a day for 22 days (test samples 1 μg/mL; control sample 2 7.5 μg/mL pioglitazone hydrochloride), negative sample = 100; for decrease in hemoglobin A1c level in comparison with the negative sample: oral once a day, 23rd day
Experimental: Six-week old male db/db mice (purchased from Clea Japan, Inc.) were used as type-II diabetes model mice. These mice were divided into groups, each consisting of 7 animals. Each test sample was dissolved in DMSO, and the concentration was adjusted to 1 μg/mL with physiological saline. The final DMSO concentration was adjusted to 0.2%. […] Further, as a control sample 2, ACTOS® tablets (Takeda Pharmaceutical Co., Ltd.) were ground in a mortar and dissolved in physiological saline so that the concentration of pioglitazone hydrochloride as the active ingredient should become 7.5 μg/mL.

CC(C)C(C)CCC(C)C1CCC2C3=CCC4C(C)C(O)CCC4(C)C3CCC21C (stereo not shown) [test sample 2, 4-methylergost-7-en-3-ol]
changes over time in random blood glucose levels [1]: effect of suppressing the increase in blood glucose levels was clearly observed
changes over time in fasting blood glucose levels [1]: effect of suppressing the increase in blood glucose levels was clearly observed
Hemoglobin A1c relative levels (%) 35th day from the administration ([1]; 35th day): 82.7 ± 21.0%
Hemoglobin A1c relative levels (%) 23th day from the administration [2]: 91.0 ± 6.7%
decrease in hemoglobin A1c level in comparison with the negative sample [2]: about 11%

CCC(CCC(C)C1CCC2C3=CCC4C(C)C(O)CCC4(C)C3CCC21C)C(C)C (stereo not shown) [test sample 3, 4-methylstigmast-7-en-3-ol]
changes over time in random blood glucose levels [1]: effect of suppressing the increase in blood glucose levels was clearly observed
changes over time in fasting blood glucose levels [1]: effect of suppressing the increase in blood glucose levels was clearly observed
Hemoglobin A1c relative levels (%) 35th day from the administration ([1]; 35th day): 77.8 ± 12.2%
Hemoglobin A1c relative levels (%) 23th day from the administration [2]: 88.8 ± 9.0%

CC(C)CCCC(C)C1CCC2C3=CCC4C(C)C(O)CCC4(C)C3CCC21C (stereo not shown) [test sample 1, 4-methylcholest-7-en-3-ol]
changes over time in random blood glucose levels [1]: effect of suppressing the increase in blood glucose levels was clearly observed
changes over time in fasting blood glucose levels [1]: effect of suppressing the increase in blood glucose levels was clearly observed
Hemoglobin A1c relative levels (%) 35th day from the administration ([1]; 35th day): 80.2 ± 19.2%
Hemoglobin A1c relative levels (%) 23th day from the administration [2]: 89.9 ± 9.0%
decrease in hemoglobin A1c level in comparison with the negative sample [2]: about 11%

CC[C@H](CC[C@@H](C)[C@H]1CC[C@H]2[C@@H]3CC=C4C[C@@H](O)CC[C@]4(C)[C@H]3CC[C@]12C)C(C)C [control sample 1, β-sitosterol, reference compound]
changes over time in random blood glucose levels [1]: rapid increases were observed
changes over time in fasting blood glucose levels [1]: rapid increases were observed
Hemoglobin A1c relative levels (%) 35th day from the administration ([1]; 35th day): 94.8 ± 8.5%
decrease in hemoglobin A1c level in comparison with the negative sample ([1]; oral once a day, 35th day): about 0.5%
hemoglobin A1c lowering effect (in words) ([1]; oral once a day, 35th day): almost no hemoglobin A1c lowering effect was observed
